Measurements as given in PubChem BioAssay (NCI).
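Where inhibition never reached the appropriate level, the endpoint shown equals the highest concentration tested. Otherwise, values were interpolated linearly from a five-concentration, 48-hour dose response in 96-well plates. The concentration for full growth arrest is given as TGI.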

Assays:
Experiment in all cases: NCI anticancer screen, dose series, 48 h
[1] = test system: 786-0 renal
[2] = test system: A498 renal
[3] = test system: A549 NSCLC
[4] = test system: ACHN renal
[5] = test system: BT-549 breast
[6] = test system: CAKI-1 renal
[7] = test system: COLO 205 colon
[8] = test system: DU-145 prostate
[9] = test system: EKVX NSCLC
[10] = test system: HCC-2998 colon
[11] = test system: HCT-116 colon
[12] = test system: HCT-15 colon
[13] = test system: HL-60(TB) leukemia
[14] = test system: HOP-62 NSCLC
[15] = test system: HOP-92 NSCLC
[16] = test system: HT29 colon
[17] = test system: IGROV1 ovarian
[18] = test system: K-562 leukemia
[19] = test system: KM12 colon
[20] = test system: LOX IMVI melanoma
[21] = test system: M14 melanoma
[22] = test system: MALME-3M melanoma
[23] = test system: MCF7 breast
[24] = test system: MDA-MB-231 breast
[25] = test system: MDA-MB-435
[26] = test system: MDA-N
[27] = test system: MOLT-4 leukemia
[28] = test system: NCI-H226 lung
[29] = test system: NCI-H23 lung
[30] = test system: NCI-H460 lung
[31] = test system: NCI-H522 lung
[32] = test system: NCI/ADR-RES ovarian
[33] = test system: OVCAR-3 ovarian
[34] = test system: OVCAR-4 ovarian
[35] = test system: OVCAR-5 ovarian
[36] = test system: OVCAR-8 ovarian
[37] = test system: PC-3 prostate
[38] = test system: RXF 393 renal
[39] = test system: SF-268 CNS
[40] = test system: SF-295 CNS
[41] = test system: SF-539 CNS
[42] = test system: SK-MEL-2 melanoma
[43] = test system: SK-MEL-28 melanoma
[44] = test system: SK-MEL-5 melanoma
[45] = test system: SK-OV-3 ovarian
[46] = test system: SN12C renal
[47] = test system: SNB-19 CNS
[48] = test system: SNB-75 CNS
[49] = test system: SW-620 colon
[50] = test system: T-47D breast
[51] = test system: TK-10 renal
[52] = test system: U251 CNS
[53] = test system: UACC-257 melanoma
[54] = test system: UACC-62 melanoma
[55] = test system: UO-31 renal
[56] = test system: CCRF-CEM leukemia
[57] = test system: HS 578T breast
[58] = test system: RPMI-8226 leukemia

Compound: CN(CCNC(=O)c1nn(C)c2c1Cc1ccccc1-2)CCNC(=O)c1nn(C)c2c1Cc1ccccc1-2
- TGI [1]: 27.7 µM
- TGI [2]: 28.7 µM
- TGI [3]: 33.3 µM
- TGI [4]: 28.4 µM
- TGI [5]: 30.9 µM
- TGI [6]: 47.4 µM
- TGI [7]: 24.8 µM
- TGI [8]: 41.5 µM
- TGI [9]: 72.8 µM
- TGI [10]: 25.5 µM
- TGI [11]: 28.9 µM
- TGI [12]: 34.4 µM
- TGI [13]: 29 µM
- TGI [14]: 34.2 µM
- TGI [15]: 29.3 µM
- TGI [16]: 33.5 µM
- TGI [17]: 27.5 µM
- TGI [18]: 29.6 µM
- TGI [19]: 43.7 µM
- TGI [20]: 34.8 µM
- TGI [21]: 26.5 µM
- TGI [22]: 29.8 µM
- TGI [23]: 26 µM
- TGI [24]: 38.1 µM
- TGI [25]: 31.1 µM
- TGI [26]: 29.4 µM
- TGI [27]: 31.2 µM
- TGI [28]: 34.5 µM
- TGI [29]: 32.3 µM
- TGI [30]: 31.7 µM
- TGI [31]: 30 µM
- TGI [32]: 70.4 µM
- TGI [33]: 29.8 µM
- TGI [34]: 53.1 µM
- TGI [35]: 89 µM
- TGI [36]: 42.2 µM
- TGI [37]: 47.6 µM
- TGI [38]: 29.5 µM
- TGI [39]: 29.4 µM
- TGI [40]: 30.8 µM
- TGI [41]: 27.6 µM
- TGI [42]: 28.6 µM
- TGI [43]: 30.9 µM
- TGI [44]: 24.5 µM
- TGI [45]: 43.7 µM
- TGI [46]: 30.8 µM
- TGI [47]: 31.8 µM
- TGI [48]: 28.4 µM
- TGI [49]: 38.9 µM
- TGI [50]: 91.5 µM
- TGI [51]: 29.6 µM
- TGI [52]: 28.9 µM
- TGI [53]: 27.5 µM
- TGI [54]: 28.7 µM
- TGI [55]: 24.2 µM

Compound: CC1=C(\C=C/C(C)=C/C=C/C(C)=C/C=C/C=C(C)\C=C\C=C(C)/C=C/C2=C(C)CCCC2(C)C)C(C)(C)CCC1
- TGI [1]: > 100 µM
- TGI [2]: > 100 µM
- TGI [4]: > 100 µM
- TGI [5]: > 100 µM
- TGI [56]: > 100 µM
- TGI [7]: > 100 µM
- TGI [8]: > 100 µM
- TGI [10]: > 100 µM
- TGI [11]: 71.9 µM
- TGI [12]: > 100 µM
- TGI [14]: > 100 µM
- TGI [57]: > 100 µM
- TGI [16]: > 100 µM
- TGI [17]: > 100 µM
- TGI [18]: > 100 µM
- TGI [19]: > 100 µM
- TGI [20]: > 100 µM
- TGI [21]: > 100 µM
- TGI [22]: > 100 µM
- TGI [23]: > 100 µM
- TGI [24]: > 100 µM
- TGI [25]: > 100 µM
- TGI [26]: > 100 µM
- TGI [27]: > 100 µM
- TGI [28]: > 100 µM
- TGI [29]: > 100 µM
- TGI [30]: > 100 µM
- TGI [31]: > 100 µM
- TGI [32]: > 100 µM
- TGI [33]: > 100 µM
- TGI [34]: > 100 µM
- TGI [35]: > 100 µM
- TGI [36]: > 100 µM
- TGI [37]: > 100 µM
- TGI [38]: > 100 µM
- TGI [39]: > 100 µM
- TGI [40]: > 100 µM
- TGI [42]: > 100 µM
- TGI [43]: > 100 µM
- TGI [44]: > 100 µM
- TGI [45]: > 100 µM
- TGI [46]: > 100 µM
- TGI [47]: > 100 µM
- TGI [48]: > 100 µM
- TGI [49]: > 100 µM
- TGI [50]: > 100 µM
- TGI [51]: > 100 µM
- TGI [52]: > 100 µM
- TGI [53]: > 100 µM
- TGI [54]: > 100 µM
- TGI [55]: > 100 µM

Compound: CO[C@H]1C[C@H](O[C@H]2CC[C@@]3(C)[C@H](CC[C@@H]4[C@@H]3CC[C@]3(C)[C@@H](C5=CC(=O)OC5)CC[C@]43O)C2)O[C@H](C)[C@H]1O
- TGI [1]: < 0.0129 µM
- TGI [2]: 0.0589 µM
- TGI [3]: < 0.0118 µM
- TGI [4]: 0.0101 µM
- TGI [5]: 0.0175 µM
- TGI [6]: 0.0284 µM
- TGI [56]: > 100 µM
- TGI [7]: 0.235 µM
- TGI [9]: 0.0148 µM
- TGI [10]: 0.118 µM
- TGI [11]: 0.0161 µM
- TGI [12]: 0.0164 µM
- TGI [14]: 0.0202 µM
- TGI [15]: 0.0882 µM
- TGI [16]: 0.0552 µM
- TGI [17]: 0.113 µM
- TGI [19]: 0.371 µM
- TGI [20]: 0.0159 µM
- TGI [21]: 0.0607 µM
- TGI [22]: 0.0113 µM
- TGI [23]: 0.134 µM
- TGI [24]: 0.412 µM
- TGI [25]: 0.0974 µM
- TGI [26]: 0.114 µM
- TGI [28]: 0.0586 µM
- TGI [29]: 0.0178 µM
- TGI [30]: 0.0103 µM
- TGI [31]: 0.0197 µM
- TGI [32]: 0.0472 µM
- TGI [33]: < 0.0194 µM
- TGI [34]: < 0.0131 µM
- TGI [35]: 0.0896 µM
- TGI [36]: 0.0245 µM
- TGI [37]: 0.0212 µM
- TGI [58]: 0.0427 µM
- TGI [38]: 0.0105 µM
- TGI [39]: 0.0188 µM
- TGI [40]: 0.0555 µM
- TGI [41]: 0.0138 µM
- TGI [42]: 0.0478 µM
- TGI [43]: 0.137 µM
- TGI [44]: 0.0469 µM
- TGI [45]: 0.0291 µM
- TGI [46]: 0.0111 µM
- TGI [47]: 0.143 µM
- TGI [48]: 0.17 µM
- TGI [49]: 0.113 µM
- TGI [51]: 0.0482 µM
- TGI [52]: 0.0197 µM
- TGI [53]: 0.215 µM
- TGI [54]: 0.031 µM
- TGI [55]: 0.0217 µM

Compound: COc1cc2c(c3oc4c(O)cccc4c(=O)c13)CC(C(C)(O)CCl)O2 (configuration not stated)
- TGI [1]: 12.8 µM
- TGI [2]: 37.3 µM
- TGI [3]: 13.6 µM
- TGI [4]: 1.87 µM
- TGI [5]: 12.5 µM
- TGI [6]: 7.68 µM
- TGI [7]: 1.85 µM
- TGI [8]: 10.3 µM
- TGI [9]: 21.9 µM
- TGI [10]: 8.35 µM
- TGI [11]: 2.53 µM
- TGI [12]: > 27.2 µM
- TGI [14]: 5.85 µM
- TGI [15]: 10.5 µM
- TGI [57]: 6.89 µM
- TGI [16]: 15.9 µM
- TGI [17]: 8.28 µM
- TGI [19]: 4.56 µM
- TGI [20]: 0.026 µM
- TGI [21]: 1.27 µM
- TGI [22]: 8.12 µM
- TGI [23]: 12.9 µM
- TGI [24]: 5.6 µM
- TGI [25]: 1.55 µM
- TGI [26]: 2.45 µM
- TGI [28]: 24.2 µM
- TGI [29]: 6.14 µM
- TGI [30]: 13.2 µM
- TGI [31]: 5.94 µM
- TGI [32]: 11.9 µM
- TGI [33]: 7.43 µM
- TGI [34]: 8.18 µM
- TGI [35]: 34 µM
- TGI [36]: 7.94 µM
- TGI [37]: 7.76 µM
- TGI [58]: 0.655 µM
- TGI [38]: 2.43 µM
- TGI [39]: 3.33 µM
- TGI [40]: 24.1 µM
- TGI [41]: 2.2 µM
- TGI [42]: 3.38 µM
- TGI [43]: 3.74 µM
- TGI [44]: 1.5 µM
- TGI [45]: 17.9 µM
- TGI [46]: 2.4 µM
- TGI [47]: 20.9 µM
- TGI [48]: 8.18 µM
- TGI [49]: 3.74 µM
- TGI [50]: 13.5 µM
- TGI [51]: 41.8 µM
- TGI [52]: 12.5 µM
- TGI [53]: 6.79 µM
- TGI [54]: 2.3 µM
- TGI [55]: 4.9 µM
